According to ChEMBL document CHEMBL1201862, “PubChem BioAssay data set” (2004):
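Each compound was tested at five concentrations against cells in 96-well plates for 48 hours. GI50 = concentration required for 50% inhibition of growth.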 The source made the active and inactive calls. No stated cut-off is given here; in the data, active = GI50 up to about 1.1 µM and inactive = higher.

Key:
Experiment in all cases: NCI tumour cell line growth inhibition, 48 h
UO-31 = system: UO-31
A498 = system: A498
SNB-19 = system: SNB-19
BT-549 = system: BT-549
NCI-H226 = system: NCI-H226
KM12 = system: KM12
UACC-257 = system: UACC-257
SK-MEL-28 = system: SK-MEL-28
786-0 = system: 786-0
MOLT-4 = system: MOLT-4
K562 = system: K562
MDA-MB-435 = system: MDA-MB-435
OVCAR-8 = system: OVCAR-8
PC-3 = system: PC-3
ACHN = system: ACHN
DU-145 = system: DU-145
SF-295 = system: SF-295
RPMI-8226 = system: RPMI-8226
MCF7 = system: MCF7
SR = system: SR

Structure (SMILES): COc1cc([C@@H]2c3cc4c(cc3[C@@H](NCCNCCO)[C@H]3COC(=O)[C@H]23)OCO4)cc(OC)c1O
- GI50 (UO-31): 15.4 µM (inactive)
- GI50 (A498): 3.85 µM (inactive)
- GI50 (SNB-19): 0.836 µM (active)
- GI50 (BT-549): 2.14 µM (inactive)
- GI50 (NCI-H226): 1.37 µM (inactive)
- GI50 (KM12): 3.72 µM (inactive)
- GI50 (UACC-257): 5.02 µM (inactive)
- GI50 (SK-MEL-28): 2.67 µM (inactive)
- GI50 (786-0): 0.762 µM (active)
- GI50 (MOLT-4): 0.0267 µM (active)
- GI50 (K562): 1.04 µM (active)
- GI50 (MDA-MB-435): 9.44 µM (inactive)
- GI50 (OVCAR-8): 1.81 µM (inactive)
- GI50 (PC-3): 3.78 µM (inactive)

Structure (SMILES): O=C(O)c1cc2ccccc2c(/N=N/c2ccccc2)c1O
- GI50 (UO-31): 31.2 µM (inactive)
- GI50 (A498): 33.7 µM (inactive)
- GI50 (SNB-19): 26.1 µM (inactive)
- GI50 (ACHN): 26.2 µM (inactive)
- GI50 (BT-549): 20.8 µM (inactive)
- GI50 (DU-145): 14.5 µM (inactive)
- GI50 (KM12): 14.9 µM (inactive)
- GI50 (UACC-257): 15.6 µM (inactive)
- GI50 (SF-295): 12.4 µM (inactive)
- GI50 (SK-MEL-28): 29.8 µM (inactive)
- GI50 (786-0): 33.5 µM (inactive)
- GI50 (MOLT-4): 92.7 µM (inactive)
- GI50 (K562): 36.8 µM (inactive)
- GI50 (MDA-MB-435): 15.1 µM (inactive)
- GI50 (OVCAR-8): 37.2 µM (inactive)
- GI50 (PC-3): 18.5 µM (inactive)
- GI50 (RPMI-8226): 21.6 µM (inactive)

Structure (SMILES): COC(=O)/C=C(/C=C1/C(C#N)=C(N)N(c2ccc(Cl)cc2)C1(C)/C(=C/C(=O)OC)C(=O)OC)C(=O)OC (centres undefined)
- GI50 (UO-31): 64.1 µM (inactive)
- GI50 (A498): 49.5 µM (inactive)
- GI50 (SNB-19): > 100 µM (inactive)
- GI50 (ACHN): 42.7 µM (inactive)
- GI50 (DU-145): 60.3 µM (inactive)
- GI50 (UACC-257): 63.4 µM (inactive)
- GI50 (SF-295): 53.1 µM (inactive)
- GI50 (SK-MEL-28): > 100 µM (inactive)
- GI50 (786-0): 40.3 µM (inactive)
- GI50 (MCF7): 78.3 µM (inactive)
- GI50 (MOLT-4): 23 µM (inactive)
- GI50 (K562): 20.6 µM (inactive)
- GI50 (MDA-MB-435): 52.4 µM (inactive)
- GI50 (OVCAR-8): 33.5 µM (inactive)
- GI50 (PC-3): 34.6 µM (inactive)
- GI50 (SR): 29.6 µM (inactive)
- GI50 (RPMI-8226): 24.7 µM (inactive)

Structure (SMILES): CC1(C)O[C@@H](CO)[C@H]([C@@]23OC[C@H]4OC(C)(C)OC4[C@@H]2OC(C)(C)O3)O1 (some centres undefined)
- GI50 (UO-31): > 100 µM (inactive)
- GI50 (SNB-19): > 100 µM (inactive)
- GI50 (ACHN): > 100 µM (inactive)
- GI50 (DU-145): > 100 µM (inactive)
- GI50 (NCI-H226): > 100 µM (inactive)
- GI50 (KM12): > 100 µM (inactive)
- GI50 (SF-295): > 100 µM (inactive)
- GI50 (SK-MEL-28): > 100 µM (inactive)
- GI50 (786-0): > 100 µM (inactive)
- GI50 (MCF7): > 100 µM (inactive)
- GI50 (MOLT-4): > 100 µM (inactive)
- GI50 (K562): > 100 µM (inactive)
- GI50 (MDA-MB-435): > 100 µM (inactive)
- GI50 (OVCAR-8): > 100 µM (inactive)
- GI50 (PC-3): > 100 µM (inactive)
- GI50 (SR): > 100 µM (inactive)
- GI50 (RPMI-8226): > 100 µM (inactive)

Structure (SMILES): CCOP(=O)(Nc1ccccc1P(=O)(OCC)OCC)OCC
- GI50 (UO-31): > 100 µM (inactive)
- GI50 (A498): > 100 µM (inactive)
- GI50 (SNB-19): > 100 µM (inactive)
- GI50 (ACHN): > 100 µM (inactive)
- GI50 (BT-549): > 100 µM (inactive)
- GI50 (DU-145): > 100 µM (inactive)
- GI50 (KM12): > 100 µM (inactive)
- GI50 (UACC-257): > 100 µM (inactive)
- GI50 (SF-295): > 100 µM (inactive)
- GI50 (SK-MEL-28): > 100 µM (inactive)
- GI50 (786-0): > 100 µM (inactive)
- GI50 (MCF7): > 100 µM (inactive)
- GI50 (MOLT-4): > 100 µM (inactive)
- GI50 (K562): > 100 µM (inactive)
- GI50 (MDA-MB-435): > 100 µM (inactive)
- GI50 (OVCAR-8): > 100 µM (inactive)
- GI50 (PC-3): > 100 µM (inactive)
- GI50 (RPMI-8226): > 100 µM (inactive)

Structure (SMILES): C[C@H](N)C(=O)Nc1ccc(-c2nc3ccccc3s2)cc1
- GI50 (UO-31): 12.3 µM (inactive)
- GI50 (A498): 30.1 µM (inactive)
- GI50 (SNB-19): 22.4 µM (inactive)
- GI50 (ACHN): 17.4 µM (inactive)
- GI50 (BT-549): > 100 µM (inactive)
- GI50 (DU-145): 18.4 µM (inactive)
- GI50 (NCI-H226): 26.8 µM (inactive)
- GI50 (KM12): 16.3 µM (inactive)
- GI50 (UACC-257): 39.1 µM (inactive)
- GI50 (SF-295): 18.7 µM (inactive)
- GI50 (SK-MEL-28): 18.5 µM (inactive)
- GI50 (786-0): 15.7 µM (inactive)
- GI50 (MOLT-4): 16.3 µM (inactive)
- GI50 (K562): 21.5 µM (inactive)
- GI50 (MDA-MB-435): 16.9 µM (inactive)
- GI50 (OVCAR-8): 25.6 µM (inactive)
- GI50 (PC-3): 20.2 µM (inactive)
- GI50 (SR): 15.1 µM (inactive)

Structure (SMILES): Cc1cc(C)c2c(-c3ccccc3)cc(=O)[nH]c2c1
- GI50 (A498): > 100 µM (inactive)
- GI50 (ACHN): > 100 µM (inactive)
- GI50 (DU-145): > 100 µM (inactive)
- GI50 (NCI-H226): > 100 µM (inactive)
- GI50 (KM12): > 100 µM (inactive)
- GI50 (UACC-257): > 100 µM (inactive)
- GI50 (SF-295): > 100 µM (inactive)
- GI50 (SK-MEL-28): > 100 µM (inactive)
- GI50 (786-0): > 100 µM (inactive)
- GI50 (MCF7): > 100 µM (inactive)
- GI50 (MOLT-4): > 100 µM (inactive)
- GI50 (K562): > 100 µM (inactive)
- GI50 (MDA-MB-435): > 100 µM (inactive)
- GI50 (OVCAR-8): > 100 µM (inactive)
- GI50 (PC-3): > 100 µM (inactive)
- GI50 (RPMI-8226): > 100 µM (inactive)

Structure (SMILES): CN1/C(=C/C=C/C=C/C=C2C(=O)c3ccccc3C2=O)C(C)(C)c2ccccc21
- GI50 (UO-31): 37.2 µM (inactive)
- GI50 (A498): 23.8 µM (inactive)
- GI50 (SNB-19): > 100 µM (inactive)
- GI50 (ACHN): 25.8 µM (inactive)
- GI50 (BT-549): 24 µM (inactive)
- GI50 (DU-145): 43.4 µM (inactive)
- GI50 (NCI-H226): 51.9 µM (inactive)
- GI50 (KM12): 76.9 µM (inactive)
- GI50 (UACC-257): 17.5 µM (inactive)
- GI50 (SF-295): 35.5 µM (inactive)
- GI50 (786-0): > 100 µM (inactive)
- GI50 (MCF7): 31.3 µM (inactive)
- GI50 (K562): 13.3 µM (inactive)
- GI50 (MDA-MB-435): 54.5 µM (inactive)
- GI50 (OVCAR-8): 44 µM (inactive)
- GI50 (SR): > 100 µM (inactive)
- GI50 (RPMI-8226): 6.55 µM (inactive)
